# Laboratory results: the supplement of paper PMC10307832
# Compound: Cn1nnc2c(C(N)=O)ncn2c1=O [Temozolomide] + C[C@@H](Oc1cc(-c2cnn(C3CCNCC3)c2)cnc1N)c1c(Cl)ccc(F)c1Cl [Crizotinib] (partner 1 µM)
# Assay: relative viability (nuclei count vs DMSO), 5 days (fraction); higher = more cells survive
# Conditions: first compound 20 µM
# Procedure, shortened: (§1)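 Medians of duplicate plates are given as relative viability. That measure is the nuclei count in treated wells divided by the count in vehicle wells. Counts were taken on 4× images of lung cancer cell lines in 1536-well plates, 5 days after pin-tool dosing the day after seeding with one drug alone or a fixed anchor-drug dose plus five library-drug doses (not always all listed) in √10 steps.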
row,Cell Line,relative viability
1,NCI-H2347,0.645
2,NCI-H2405,0.822
3,NCI-H3122,0.235
4,PC-3 [JPC-3],0.458
5,PC-14,0.732
6,RERF-LC-KJ,0.833
7,SK-LU-1,0.463
8,SW 1573,0.846
9,UMC-11,0.333

# Compound: C[C@@H](C(=O)N[C@@H](C1CCCCC1)C(=O)N2CCC[C@H]2C(=O)N[C@@H]3[C@@H](CC4=CC=CC=C34)OCC#CC#CCO[C@@H]5CC6=CC=CC=C6[C@@H]5NC(=O)[C@@H]7CCCN7C(=O)[C@H](C8CCCCC8)NC(=O)[C@H](C)NC)NC [AZD5582] + CC(=O)Nc1cccc(-n2c(=O)n(C3CC3)c(=O)c3c(Nc4ccc(I)cc4F)n(C)c(=O)c(C)c32)c1 [Trametinib] (partner 0.02 µM)
# Assay: as above
# Conditions: first compound 0.001581 µM
# Procedure, shortened: as §1
row,Cell Line,relative viability
1,NCI-H1755,0.761
2,NCI-H1792,0.347
3,NCI-H1915,0.309
4,NCI-H1975,0.444
5,NCI-H1993,0.455
6,NCI-H2009,0.281
7,NCI-H2023,0.421
8,NCI-H2085,0.433
9,NCI-H2087,0.184
10,NCI-H2126,0.581
11,NCI-H2347,0.327
12,NCI-H2405,0.705
13,NCI-H3122,0.269
14,PC-3 [JPC-3],0.668
15,PC-14,0.404
16,RERF-LC-KJ,0.764
17,SK-LU-1,0.379
18,SW 1573,0.473
19,UMC-11,0.624

# Same assay, conditions: first compound 0.005 µM
row,Cell Line,relative viability
1,NCI-H1755,0.843
2,NCI-H1792,0.482
3,NCI-H1915,0.294
4,NCI-H1975,0.434
5,NCI-H1993,0.505
6,NCI-H2009,0.297
7,NCI-H2023,0.525
8,NCI-H2085,0.643
9,NCI-H2087,0.244
10,NCI-H2126,0.594
11,NCI-H2347,0.266
12,NCI-H2405,0.739
13,NCI-H3122,0.224
14,PC-3 [JPC-3],0.627
15,PC-14,0.44
16,RERF-LC-KJ,0.818
17,SK-LU-1,0.383
18,SW 1573,0.586
19,UMC-11,0.679

# Same assay, conditions: first compound 0.01581 µM
row,Cell Line,relative viability
1,NCI-H1755,0.802
2,NCI-H1792,0.478
3,NCI-H1915,0.296
4,NCI-H1975,0.448
5,NCI-H1993,0.493
6,NCI-H2009,0.295
7,NCI-H2023,0.595
8,NCI-H2085,0.394
9,NCI-H2087,0.163
10,NCI-H2126,0.594
11,NCI-H2347,0.264
12,NCI-H2405,0.545
13,NCI-H3122,0.24
14,PC-3 [JPC-3],0.696
15,PC-14,0.722
16,RERF-LC-KJ,0.898
17,SK-LU-1,0.407
18,SW 1573,0.537
19,UMC-11,0.629

# Same assay, conditions: first compound 0.05 µM
row,Cell Line,relative viability
1,NCI-H1755,0.9
2,NCI-H1792,0.669
3,NCI-H1915,0.373
4,NCI-H1975,0.322
5,NCI-H1993,0.526
6,NCI-H2009,0.333
7,NCI-H2023,0.36
8,NCI-H2085,0.61
9,NCI-H2087,0.22
10,NCI-H2126,0.614
11,NCI-H2347,0.311
12,NCI-H2405,0.709
13,NCI-H3122,0.206
14,PC-3 [JPC-3],0.486
15,PC-14,0.397
16,RERF-LC-KJ,0.781
17,SK-LU-1,0.236
18,SW 1573,0.662
19,UMC-11,0.417

# Compound: C[C@@H](C(=O)N[C@@H](C1CCCCC1)C(=O)N2CCC[C@H]2C(=O)N[C@@H]3[C@@H](CC4=CC=CC=C34)OCC#CC#CCO[C@@H]5CC6=CC=CC=C6[C@@H]5NC(=O)[C@@H]7CCCN7C(=O)[C@H](C8CCCCC8)NC(=O)[C@H](C)NC)NC [AZD5582] + CC(C)C[C@H](NC(=O)[C@H](Cc1ccccc1)NC(=O)c1cnccn1)B(O)O [Bortezomib] (partner 0.002 µM)
# Assay: as above
# Conditions: first compound 0.001581 µM
# Procedure, shortened: as §1
row,Cell Line,relative viability
1,NCI-H1755,0.925
2,NCI-H1792,0.92
3,NCI-H1915,0.938
4,NCI-H1975,0.327
5,NCI-H1993,1.06
6,NCI-H2009,0.838
7,NCI-H2023,0.934
8,NCI-H2085,0.953
9,NCI-H2087,0.874
10,NCI-H2126,1.08
11,NCI-H2347,0.73
12,NCI-H2405,0.972
13,NCI-H3122,1.03
14,PC-3 [JPC-3],0.8
15,PC-14,0.736
16,SK-LU-1,0.436
17,SW 1573,1.3
18,UMC-11,0.677

# Same assay, conditions: first compound 0.005 µM
row,Cell Line,relative viability
1,NCI-H1755,1.02
2,NCI-H1792,1.02
3,NCI-H1915,0.991
4,NCI-H1975,0.458
5,NCI-H1993,1.38
6,NCI-H2009,1.13
7,NCI-H2023,1.1
8,NCI-H2085,1.19
9,NCI-H2087,0.861
10,NCI-H2126,1.1
11,NCI-H2347,0.949
12,NCI-H2405,1.01
13,NCI-H3122,0.954
14,PC-3 [JPC-3],0.788
15,PC-14,0.777
16,RERF-LC-KJ,0.42
17,SK-LU-1,0.697
18,SW 1573,0.996
19,UMC-11,0.873

# Same assay, conditions: first compound 0.01581 µM
row,Cell Line,relative viability
1,NCI-H1755,0.936
2,NCI-H1792,0.892
3,NCI-H1915,0.92
4,NCI-H1975,0.373
5,NCI-H1993,1.15
6,NCI-H2009,0.61
7,NCI-H2023,0.721
8,NCI-H2085,0.933
9,NCI-H2087,0.735
10,NCI-H2126,1.01
11,NCI-H2347,0.693
12,NCI-H2405,0.88
13,NCI-H3122,1.07
14,PC-3 [JPC-3],0.793
15,PC-14,0.85
16,RERF-LC-KJ,1.11
17,SK-LU-1,0.856
18,SW 1573,1.04
19,UMC-11,0.733

# Same assay, conditions: first compound 0.05 µM
row,Cell Line,relative viability
1,NCI-H1755,1.02
2,NCI-H1792,1.22
3,NCI-H1915,0.855
4,NCI-H1975,0.414
5,NCI-H1993,1.1
6,NCI-H2009,0.9
7,NCI-H2023,0.716
8,NCI-H2085,1.17
9,NCI-H2087,0.933
10,NCI-H2126,1.05
11,NCI-H2347,0.929
12,NCI-H2405,0.947
13,NCI-H3122,0.729
14,PC-3 [JPC-3],0.38
15,PC-14,0.743
16,RERF-LC-KJ,0.654
17,SK-LU-1,0.477
18,SW 1573,1.43
19,UMC-11,0.709
